Measurements published in a compilation of properties of binary mixtures (doi:10.5541/ijot.303607).

Assay: xn = mol fraction of the nth substance listed
Details: 101 kPa

CC(O)C(=O)[O-].[NH3+]CCO (stereo not given) + CCO
speed of sound [m/s]
Details | x2 = 0.0543 | x2 = 0.1051 | x2 = 0.206 | x2 = 0.3151 | x2 = 0.4144 | x2 = 0.5122 | x2 = 0.6116 | x2 = 0.7232 | x2 = 0.8109 | x2 = 0.9528
288.15 K | – | 1848 | 1792.9 | 1727.2 | – | 1590.8 | 1514 | – | 1349.2 | –
290.65 K | 1863.7 | 1839.9 | – | 1720.3 | 1654.4 | 1586.3 | 1507.4 | 1416 | 1342 | 1219.2
293.15 K | 1855.8 | 1832.1 | 1779 | 1713.6 | – | – | 1500.8 | 1409.1 | 1334.8 | 1211.3
295.65 K | 1848.3 | 1824.7 | 1772.2 | 1707 | 1640.9 | 1573.7 | 1494 | 1402.2 | 1327.5 | 1203.3
298.15 K | – | – | 1765.7 | 1700.7 | 1634.4 | – | 1487.3 | 1395.3 | 1320.3 | 1195.4
300.65 K | – | – | 1765.7 | 1700.7 | 1634.4 | 1567.3 | 1487.3 | 1395.3 | – | –
303.15 K | 1828 | 1804.4 | – | – | 1621.5 | 1555 | 1474.1 | – | 1305.9 | 1179.5
305.65 K | 1821.7 | 1798.1 | 1747.1 | 1682.1 | – | – | 1467.5 | 1374.7 | 1298.8 | 1171.5
308.15 K | – | 1791.9 | 1741.1 | 1676 | 1608.8 | 1542.7 | 1461 | 1367.9 | 1291.6 | 1163.6
310.65 K | 1809.5 | 1785.8 | 1735.2 | 1670 | 1602.6 | 1536.5 | 1454.5 | – | 1284.4 | –
313.15 K | – | 1779.7 | 1729.3 | 1664 | 1596.3 | 1530.3 | 1448 | 1354.3 | 1277.3 | 1147.8
315.65 K | – | 1773.7 | 1723.4 | 1658 | 1590.1 | 1524.2 | 1441.5 | 1347.5 | 1270.2 | –
318.15 K | – | 1767.8 | 1717.5 | – | 1583.9 | 1518.1 | 1435 | 1340.8 | 1263.1 | 1132.2
320.65 K | 1786.1 | 1762 | 1711.8 | 1646 | – | 1511.9 | 1428.6 | – | 1256.1 | 1124.5
323.15 K | 1780.3 | 1756.1 | 1706 | 1640.2 | 1571.5 | 1505.7 | 1422.2 | 1327.3 | 1249 | –
